# According to patent publication US12091405B2, “Substituted pyrazole compounds as indoleamine 2,3-dioxygenase inhibitors” (Merck Sharp & Dohme LLC, priority 2018, dated 2024):
# Target: IDO1 (Homo sapiens, UniProt P14902)
# Experiment: IDO1 Cellular Assay in HeLa Cells Stimulated with IFNγ
# Assay type: cell-based
# Details: IFNγ 100 ng/mL, 300 uM L-tryptophan, about 48 hours, fluorescence readout, read-out: IDO1 HELA Cell Assay, IC50
# Experimental: Biological Assays IDO1 Cellular Assay in HeLa Cells Stimulated with IFNγ
# HeLa cells were cultured in complete HeLa culture medium (90% EMEM, 10% heat-inactivated fetal bovine serum) and expanded to about 1×10^9 cells. The cells were then collected and frozen down at 1×10^7 cells/vial in 1 mL frozen medium (90% complete HeLa culture medium, 10% DMSO).
# Compounds to be tested were serially diluted in ten 3-fold steps in DMSO starting from 10 mM DMSO stocks in Echo low volume plate(s). Compound dilutions or DMSO alone were then dispensed from the dilution plate(s) into Greiner black 384-well assay plate(s) (catalog #781086, 50 nL/well) using an Echo 550 acoustic liquid handler (Labcyte).
# Frozen HeLa cells were thawed and transferred into HeLa assay medium (99% complete HeLa culture medium, 1% Pen/Strep) with 20 mL medium/vial of cells. The cells were spun down at 250 g in a table top centrifuge for 5 min and suspended in same volume of HeLa assay medium. The cells were then counted and adjusted to a density of 2×10^5 cells/mL in HeLa assay medium. Sterile L-tryptophan were added to the cells with final concentration of 300 uM L-tryptophan. A small aliquot (2 mL/plate) of HeLa cells were set aside and were not treated with IFNγ, to serve as the Max-E control.
# HeLa cells with and without IFNγ were dispensed to the respective wells of 384-well assay plates containing the compounds. The plates were incubated for about 48 hours at a 37° C., 5% CO2 incubator. Afterwards, 12 μL of 0.5 M methyl isonipecotate in dimethyl sulfoxide were added into each well and the plates were sealed and incubated at 37° C. without CO2 overnight. The plates were centrifuged for 1 min at 200×g. The resulting fluorescence was measured in a Spectramax plate reader (Molecular Devices) with a 400 nm excitation filter and a 510 nm emission filter.
# The fluorescence intensity of each well was corrected for the background observed in wells with non-IFNγ-treated cells and was expressed as a fraction of the intensity observed in wells of IFNγ-treated cells and DMSO only. Potencies were calculated by linear least squares fit to the four parameter logistic IC50 equation.
# Compounds disclosed herein generally have IC50 of about 0.1 nM to about 20,000 nM, or more specifically, about 1 nM to about 10,000 nM, or more specifically, about 5 nM to about 5,000 nM, or more specifically, about 10 nM to about 1,000 nM, or still more specifically, about 10 nM to about 500 nM.
# IDO1, sequence (P14902 whole entry): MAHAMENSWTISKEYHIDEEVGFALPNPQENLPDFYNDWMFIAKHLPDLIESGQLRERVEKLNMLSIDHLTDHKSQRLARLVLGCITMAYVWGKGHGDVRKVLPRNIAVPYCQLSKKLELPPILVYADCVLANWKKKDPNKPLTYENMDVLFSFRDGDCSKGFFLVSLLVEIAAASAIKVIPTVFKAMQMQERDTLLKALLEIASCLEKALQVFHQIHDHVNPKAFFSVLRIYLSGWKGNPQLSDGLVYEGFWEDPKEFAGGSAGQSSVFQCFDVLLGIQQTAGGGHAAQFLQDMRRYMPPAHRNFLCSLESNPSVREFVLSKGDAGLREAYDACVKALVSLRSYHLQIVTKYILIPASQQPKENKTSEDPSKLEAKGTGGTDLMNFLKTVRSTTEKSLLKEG
row,IC50 [nM],SMILES
1,106,"C[C@@H]1CN(C(=O)c2nn(CC(=O)N3CCC(c4ccccc4F)CC3)c3c2CCC3)C[C@H](C)O1 [Example 145, 2-{3-[(2R,6S)-2,6-dimethylmorpholine-4-carbonyl]-5,6-dihydrocyclopenta[c]pyrazol-1(4H)-yl}-1-[4-(2-fluorophenyl)piperidin-1-yl]ethan-1-one]"
2,114,"Cc1cc(F)ccc1C1CCN(C(=O)Cn2nc(C(=O)N3CCC(O)(CF)CC3)c3c2CCC3)CC1 [Example 53, 1-(4-(4-fluoro-2-methylphenyl)piperidin-1-yl)-2-(3-(4-(fluoromethyl)-4-hydroxypiperidine-1-carbonyl)-5,6-dihydrocyclopenta[c]pyrazol-1 (4H)-yl)ethanone]"
3,48.9,"C[C@@H]1CN(C(=O)c2nn(CC(=O)N3CCC(c4cc(F)cc(F)c4F)CC3)c3c2CCC3)C[C@H](C)O1 [Example 117, 2-{3-[(2R,6S)-2,6-dimethylmorpholine-4-carbonyl]-5,6-dihydrocyclopenta[c]pyrazol-1(4H)-yl}-1-[4-(2,3,5-trifluorophenyl)piperidin-1-yl]ethan-1-one]"
4,53.2,"C[C@@H]1CN(C(=O)c2nn(CC(=O)N3CCC(c4cccc(F)c4F)CC3)c3c2CCC3)C[C@H](C)O1 [Example 121, 1-[4-(2,3-difluorophenyl)piperidin-1-yl]-2-{3-[(2R,6S)-2,6-dimethylmorpholine-4-carbonyl]-5,6-dihydrocyclopenta[c]pyrazol-1(4H)-yl}ethan-1-one]"
5,454,"Cc1cc(F)ccc1C1CCN(C(=O)Cn2nc(C(=O)N3CCO[C@H](CO)C3)c3c2CCC3)CC1 [Example 58, (S)-1-(4-(4-fluoro-2-methylphenyl)piperidin-1-yl)-2-(3-(2-(hydroxymethyl)morpholine-4-carbonyl)-5,6-dihydrocyclopenta[c]pyrazol-1(4H)-yl)ethanone]"
6,1.9,"Cc1cccc(C2CCN(C(=O)Cn3nc(C(=O)N4CC[C@@H](O)[C@H](C)C4)c4c3CCC4)CC2)c1C [Example 39, 1-(4-(2,3-dimethylphenyl)piperidin-1-yl)-2-(3-((3R,4R)-4-hydroxy-3-methylpiperidine-1-carbonyl)-5,6-dihydrocyclopenta[c]pyrazol-1(4H)-yl)ethan-1-one]"
7,199,"C[C@@H]1CN(C(=O)c2nn(CC(=O)N3CCC(c4ccc5ccccc5c4)CC3)c3c2CCC3)C[C@H](C)O1 [Example 76, 2-{3-[(2R,6S)-2,6-dimethylmorpholine-4-carbonyl]-5,6-dihydrocyclopenta[c]pyrazol-1(4H)-yl}-1-[4-(naphthalen-2-yl)piperidin-1-yl]ethan-1-one]"
8,61.1,"Cc1ccc(C2CCN(C(=O)Cn3nc(C(=O)N4C[C@@H](C)O[C@@H](C)C4)c4c3CCC4)CC2)cc1 [Example 127, 2-{3-[(2R,6S)-2,6-dimethylmorpholine-4-carbonyl]-5,6-dihydrocyclopenta[c]pyrazol-1(4H)-yl}-1-[4-(4-methylphenyl)piperidin-1-yl]ethan-1-one]"
9,85,"Cc1cc(C)c(C2CCN(C(=O)Cn3nc(C(=O)N4C[C@@H](C)O[C@@H](C)C4)c4c3CCC4)CC2)cc1C [Example 136, 2-{3-[(2R,6S)-2,6-dimethylmorpholine-4-carbonyl]-5,6-dihydrocyclopenta[c]pyrazol-1(4H)-yl}-1-[4-(2,4,5-trimethylphenyl)piperidin-1-yl]ethan-1-one]"
10,3.6,"Cc1cccc(C2CCN(C(=O)Cn3nc(C(=O)N4CCC(O)CC4)c4c3CCC4)CC2)c1C [Example 41, 1-(4-(2,3-dimethylphenyl)piperidin-1-yl)-2-(3-(4-hydroxypiperidine-1-carbonyl)-5,6-dihydrocyclopenta[c]pyrazol-1(4H)-yl)ethan-1-one]"
11,126,"C[C@@H]1CN(C(=O)c2nn(CC(=O)N3CCC(c4ccc(F)c(C(F)(F)F)c4)CC3)c3c2CCC3)C[C@H](C)O1 [Example 151, 2-{3-[(2R,6S)-2,6-dimethylmorpholine-4-carbonyl]-5,6-dihydrocyclopenta[c]pyrazol-1(4H)-yl}-1-{4-[4-fluoro-3-(trifluoromethyl)phenyl]piperidin-1-yl}ethan-1-one]"
12,3.4,"Cc1cccc(C2(F)CCN(C(=O)Cn3nc(C(=O)N4CCC(O)CC4)c4c3C[C@H]3C[C@@H]43)CC2)c1C [Example 10, 1-(4-(2,3-dimethylphenyl)-4-fluoropiperidin-1-yl)-2-((3bR,4aR)-3-(4-hydroxypiperidine-1-carbonyl)-3b,4,4a,5-tetrahydro-1H-cyclopropa[3,4]cyclopenta[1,2-c]pyrazol-1-yl)ethanone]"
13,1.2,"Cc1cccc(C2CCN(C(=O)Cn3nc(C(=O)N4CCC(O)CC4)c4c3CCCC4)CC2)c1C [Example 34, 1-(4-(2,3-dimethylphenyl)piperidin-1-yl)-2-(3-(4-hydroxypiperidine-1-carbonyl)-4,5,6,7-tetrahydro-1H-indazol-1-yl)ethanone]"
14,5.4,"Cc1cccc(C2(F)CCN(C(=O)Cn3nc(C(=O)N4CCN(C(=O)CO)CC4)c4c3C[C@H]3C[C@@H]43)CC2)c1C [Example 11, 1-(4-(2,3-dimethylphenyl)-4-fluoropiperidin-1-yl)-2-((3bR,4aR)-3-(4-(2-hydroxyacetyl)piperazine-1-carbonyl)-3b,4,4a,5-tetrahydro-1H-cyclopropa[3,4]cyclopenta[1,2-c]pyrazol-1-yl)ethanone]"
15,156,"C[C@@H]1CN(C(=O)c2nn(CC(=O)N3CCC(c4cccc(C(C)(F)F)c4)CC3)c3c2CCC3)C[C@H](C)O1 [Example 159, 1-{4-[3-(1,1-difluoroethyl)phenyl]piperidin-1-yl}-2-{3-[(2R,6S)-2,6-dimethylmorpholine-4-carbonyl]-5,6-dihydrocyclopenta[c]pyrazol-1(4H)-yl}ethan-1-one]"
16,29.8,"C[C@@H]1CN(C(=O)c2nn(CC(=O)N3CCC(c4cccc(C(F)(F)F)c4F)CC3)c3c2CCC3)C[C@H](C)O1 [Example 104, 2-{3-[(2R,6S)-2,6-dimethylmorpholine-4-carbonyl]-5,6-dihydrocyclopenta[c]pyrazol-1(4H)-yl}-1-{4-[2-fluoro-3-(trifluoromethyl)phenyl]piperidin-1-yl}ethan-1-one]"
17,111,"Cc1cc(F)ccc1C1CCN(C(=O)Cn2nc(C(=O)N3CC[C@H](O)[C@@H](F)C3)c3c2CCC3)CC1 [Example 52, 1-(4-(4-fluoro-2-methylphenyl)piperidin-1-yl)-2-(3-((3S,4S)-3-fluoro-4-hydroxypiperidine-1-carbonyl)-5,6-dihydrocyclopenta[c]pyrazol-1(4H)-yl)ethanone]"
18,120,"C[C@@H]1CN(C(=O)c2nn(CC(=O)N3CCC(c4cc(F)c(F)cc4F)CC3)c3c2CCC3)C[C@H](C)O1 [Example 149, 2-{3-[(2R,6S)-2,6-dimethylmorpholine-4-carbonyl]-5,6-dihydrocyclopenta[c]pyrazol-1(4H)-yl}-1-[4-(2,4,5-trifluorophenyl)piperidin-1-yl]ethan-1-one]"
19,149,"COc1ccc(F)c(C2CCN(C(=O)Cn3nc(C(=O)N4C[C@@H](C)O[C@@H](C)C4)c4c3CCC4)CC2)c1 [Example 156, 2-{3-[(2R,6S)-2,6-dimethylmorpholine-4-carbonyl]-5,6-dihydrocyclopenta[c]pyrazol-1(4H)-yl}-1-[4-(2-fluoro-5-methoxyphenyl)piperidin-1-yl]ethan-1-one]"
20,42.6,"C[C@@H]1CN(C(=O)c2nn(CC(=O)N3CCC(c4ccccc4C4CC4)CC3)c3c2CCC3)C[C@H](C)O1 [Example 113, 1-[4-(2-cyclopropylphenyl)piperidin-1-yl]-2-{3-[(2R,6S)-2,6-dimethylmorpholine-4-carbonyl]-5,6-dihydrocyclopenta[c]pyrazol-1(4H)-yl}ethan-1-one]"
21,2.8,"Cc1cccc(C2CCN(C(=O)Cn3nc(C(=O)N4CCC(C)(O)CC4)c4c3CCC4)CC2)c1C [Example 40, 1-(4-(2,3-dimethylphenyl)piperidin-1-yl)-2-(3-(4-hydroxy-4-methylpiperidine-1-carbonyl)-5,6-dihydrocyclopenta[c]pyrazol-1(4H)-yl)ethan-1-one]"
22,233,"Cc1c(F)cccc1C1CCCN(C(=O)Cn2nc(C(=O)N3C[C@@H](C)O[C@@H](C)C3)c3c2CCC3)C1 (stereo partly drawn) [Example 77, 2-{3-[(2R,6S)-2,6-dimethylmorpholine-4-carbonyl]-5,6-dihydrocyclopenta[c]pyrazol-1(4H)-yl}-1-[3-(3-fluoro-2-methylphenyl)piperidin-1-yl] ethan-1-one]"
